{"source": "patent US20240226120A1", "about": "(priority 2020, published 2024)", "key": {"[1]": {"system": "interferon and interferon-induced antiviral effector gene expression in cells expressing ORF8", "test": "qPCR of interferons and effector gene expression, ORF8", "assay_type": "cell-based, human"}, "[2]": {"system": "interferon and interferon-induced antiviral effector gene expression in cells expressing ORF10", "test": "qPCR of interferons and effector gene expression, ORF10", "assay_type": "cell-based, human"}}, "data": [{"smiles": "C=C(C)[C@@H]1CCC(C)=C[C@H]1c1c(O)cc(CCCCC)cc1O", "note": "[Cannabidiol, 2-[(1R,6R)-3-Methyl-6-(1-methylethenyl)-2-cyclohexen-1-yl]-5-pentyl-1,3-benzenediol]", "values": [{"measurement": "Interferon Lambda 1 mRNA expression", "setting": "[1]; ORF8, 1 μM CBD vs vehicle alone, 24 hours (FIG. 9A)", "value": "significantly increased"}, {"measurement": "extent of OAS1 augmentation compared with cells transfected with control vector", "setting": "[1]; ORF8, 1 μM CBD, 24 hours", "value": "significantly higher"}, {"measurement": "INF-gamma expression", "setting": "[1]; ORF8, 1 μM CBD, 24 hours, compared with effect in control cells (FIG. 9B)", "value": "greater effect"}, {"measurement": "OAS1 gene expression", "setting": "[1]; ORF8, 1 μM CBD, 24 hours, relative to all other groups and treatments (FIG. 10)", "value": "highly significant increase"}, {"measurement": "induction of OAS1", "setting": "[2]; ORF10, 1 μM CBD relative to vehicle alone, 24 hours (FIG. 14)", "value": "significantly increased"}, {"measurement": "OAS1 induction compared with CBD plus control plasmid", "setting": "[2]; ORF10, 1 μM CBD, 24 hours", "value": "lower"}]}]}
